According to patent US6747023B1 (Daiichi Pharmaceutical Co., Ltd., priority 1998, dated 2004):
Counter-ions that a name gives are not always drawn.

target: T1, human FXa (Homo sapiens, UniProt P00742); assay: Measurement of FXa inhibitory action (IC50); format: biochemical; conditions: 0.05 U/ml human FXa, substrate S2222, absorbance at 405 nm, room temperature; read-out: Concentration (nM) of the sample at which 50% of Fxa activity is inhibited
T1 construct: purchased Cosmobio-ERL HFXa-1011
Experimental: Measurement of FXa Inhibitory Action (IC50)
From the below-described equation, an inhibitory ratio % of each sample was determined.
Inhibitory ratio (%)=(1−OD of sample÷OD of control)×100

T1 sequence (P00742 235-488 limits assumed): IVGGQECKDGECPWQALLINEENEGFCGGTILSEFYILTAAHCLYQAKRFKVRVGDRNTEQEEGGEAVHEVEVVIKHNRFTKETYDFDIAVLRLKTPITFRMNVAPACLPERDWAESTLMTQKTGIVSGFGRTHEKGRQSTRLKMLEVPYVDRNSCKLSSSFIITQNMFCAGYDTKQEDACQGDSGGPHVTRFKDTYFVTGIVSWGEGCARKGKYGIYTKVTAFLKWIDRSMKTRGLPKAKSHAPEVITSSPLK
T1 sequence (P00742 41-179 partner limits assumed): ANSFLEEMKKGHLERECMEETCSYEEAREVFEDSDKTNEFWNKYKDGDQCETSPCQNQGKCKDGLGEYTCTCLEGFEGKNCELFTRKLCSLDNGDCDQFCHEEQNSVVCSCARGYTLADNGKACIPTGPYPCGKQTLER

| Compound | IC50 [nM] |
| --- | --- |
| 1-[(5-Chloroindol-2-yl)sulfonyl]-4-[4-methyl-2-(pyridin-4-yl)thiazol-5-yl]piperazine [Example A-296] | 1.3 |
| 4-[(6-Chlorobenzo[b]thien-2-yl)sulfonyl]-2-(hydroxymethyl)-1-[5-(pyridin-4-yl)pyrimidin-2-yl]piperazine hydrochloride [Example A-277] | 2.7 |
| O=C(c1ccc(-c2ccncc2)cc1)N1CCN(S(=O)(=O)c2ccc3cc(Cl)ccc3c2)CC1 [Example A-1, 1-[(6-Chloronaphthalen-2-yl)sulfonyl]-4-[4-(pyridin-4-yl)benzoyl]piperazine hydrochloride] | 123 |
| O=C(c1cnccc1-c1ccncc1)N1CCN(S(=O)(=O)c2ccc3cc(Cl)ccc3c2)CC1 [Example A-4, hydrochloride] | 54 |
| O=C(c1ccc(-c2ccccn2)cc1)N1CCN(S(=O)(=O)c2ccc3cc(Cl)ccc3c2)CC1 [Example A-17, 1-[(6-Chloronaphthalen-2-yl)sulfonyl]-4-[4-(pyridin-2-yl)benzoyl]piperazine hydrochloride] | 180 |
| Cc1c(S(=O)(=O)N2CCN(C(=O)c3ccc(-c4ccncc4)cc3)CC2)sc2ccc(Cl)cc12 [Example A-83, 1-[(5-Chloro-3-methylbenzo[b]thien-2-yl)sulfonyl]-4-[4-(piridin-4-yl)benzoyl]piperazine] | 2800 |
| O=C(c1ccc(-c2ccncc2)cc1)N1CCN(S(=O)(=O)c2cc3cc(Cl)ccc3o2)CC1 [Example A-85, 1-[(5-Chlorobenzo[b]furan-2-yl)sulfonyl]-4-[4-(pyridin-4-yl)benzoyl]piperazine] | 1000 |
| O=C(c1ccc(-c2ccncc2)cc1)N1CCN(S(=O)(=O)c2cc3ccc(Cl)cc3o2)CC1 [Example A-86, 1-[(6-Chlorobenzo[b]furan-2-yl)sulfonyl]-4-[4-(pyridin-4-yl)benzoyl]piperazine] | > 10000 |
| O=C(c1ccc(-c2ccccn2)cc1)N1CCN(S(=O)(=O)c2cc3cc(Cl)ccc3[nH]2)CC1 [Example A-90, 1-[(5-Chloroindol-2-yl)sulfonyl]-4-[4-(pyridin-2-yl)benzoyl]piperazine hydrochloride] | 16 |
| Cn1c(S(=O)(=O)N2CCN(C(=O)c3ccc(-c4ccncc4)cc3)CC2)cc2cc(Cl)ccc21 [Example A-91, 1-[(5-Chloro-1-methylindol-2-yl)sulfonyl]-4-[4-(pyridin-4-yl)benzoyl]piperazine] | 7000 |
| O=C(c1ccc(-c2ccncc2)cc1)N1CCN(S(=O)(=O)c2cc3cc(Cl)ccc3s2)CC1 [Example A-96, 1-[(5-Chlorobenzo[b]thien-2-yl)sulfonyl]-4-[4-(pyridin-4-yl)benzoyl]piperazine hydrochloride] | 450 |
| O=C(c1ccc(-c2ccncc2)cc1)N1CCN(S(=O)(=O)c2cc3ccc(Cl)cc3s2)CC1 [Example A-97, 1-[(6-Chlorobenzo[b]thien-2-yl)sulfonyl]-4-[4-(pyridin-4-yl)benzoyl]piperazine hydrochloride] | 82 |
| O=C(c1ccc(-c2ccccn2)cc1)N1CCN(S(=O)(=O)c2cc3ccc(Cl)cc3s2)CC1 [Example A-98, 1-[(6-Chlorobenzo[b]thien-2-yl)sulfonyl]-4-[4-(pyridin-2-yl)benzoyl]piperazine hydrochloride] | 125 |
| O=C(c1ccc(-c2ccncc2)cc1)N1CCN(S(=O)(=O)c2cc3cc(Cl)ccc3[nH]2)CC1 [Example A-101, 1-[(5-Chloroindol-2-yl)sulfonyl]-4-[4-(pyridin-4-yl)benzoyl]piperazine] | 9.5 |
| O=C(c1ccc(-c2cc[n+]([O-])cc2)cc1)N1CCN(S(=O)(=O)c2cc3ccc(Cl)cc3[nH]2)CC1 [Example A-106, 4-[4-[[4-[(6-Chloroindol-2-yl)sulfonyl]piperazin-1-yl]carbonyl]phenyl]pyridine N-oxide] | 420 |
| O=C(c1ccc(-c2cc[n+]([O-])cc2)cc1)N1CCN(S(=O)(=O)c2cc3cc(Cl)ccc3[nH]2)CC1 [Example A-107, 4-[4-[[4-[(5-Chloroindol-2-yl)sulfonyl]piperazin-1-yl]carbonyl]phenyl]pyridine N-oxide] | 4.7 |
| O=C(c1ccc(-c2cc[n+]([O-])cc2)cc1)N1CCN(S(=O)(=O)c2cc3ccc(Cl)cc3s2)CC1 [Example A-116, 4-[4-[[4-[(6-Chlorobenzo[b]thien-2-yl)sulfonyl]piperazin-1-yl]carbonyl]phenyl]pyridine N-oxide] | 8.6 |

| Compound | IC50 [nM] |
| --- | --- |
| C#Cc1ccc2[nH]c(S(=O)(=O)N3CCN(C(=O)c4ccc(-c5cc[n+]([O-])cc5)cc4)CC3)cc2c1 [Example A-120, 4-[4-[[4-[(5-Ethynylindol-2-yl)sulfonyl]piperazin-1-yl]carbonyl]phenyl]pyridine N-oxide] | 14 |
| NC(=O)CC1CN(S(=O)(=O)c2cc3cc(Cl)ccc3[nH]2)CCN1C(=O)c1ccc(-c2ccncc2)cc1 (stereo not shown) [Example A-130, 2-Carbamoylmethyl-4-[(5-chloroindol-2-yl)sulfonyl]-1-[4-(pyridin-4-yl)benzoyl]piperazine] | 3.6 |
| O=C(c1cnc(-c2ccncc2)nc1)N1CCN(S(=O)(=O)c2cc3cc(Cl)ccc3[nH]2)CC1 [Example A-131, 1-[(5-Chloroindol-2-yl)sulfonyl]-4-[[2-(pyridin-4-yl)pyrimidin-5-yl]carbonyl]piperazine] | 19 |
| O=C(c1cnc(-c2cc[n+]([O-])cc2)nc1)N1CCN(S(=O)(=O)c2cc3cc(Cl)ccc3[nH]2)CC1 [Example A-135, 4-[5-[[4-[(5-Chloroindol-2-yl)sulfonyl]piperazin-1-yl]carbonyl]pyrimidin-2-yl]pyridine N-oxide] | 14 |
| O=C(c1ccc(-c2ccnc(CO)c2)cc1)N1CCN(S(=O)(=O)c2ccc3cc(Cl)ccc3c2)CC1 [Example A-152, 1-[(6-Chloronaphthalen-2-yl)sulfonyl]-4-[4-(2-hydroxymethylpyridin-4-yl)benzoyl]piperazine] | 38 |
| NCc1cc(-c2ccc(C(=O)N3CCN(S(=O)(=O)c4ccc5cc(Cl)ccc5c4)CC3)cc2)ccn1 [Example A-155, 1-[4-(2-Aminomethylpyridin-4-yl)benzoyl]-4-[(6-chloronaphthalen-2-yl)sulfonyl]piperazine hydrochloride] | 28 |
| NC(=O)C[C@@H]1CN(S(=O)(=O)c2ccc3cc(Cl)ccc3c2)C[C@H](CC(N)=O)N1C(=O)c1ccc(-c2ccncc2)cc1 [Example A-173, cis-2,6-Bis(carbamoylmethyl)-4-[(6-chloronaphthalen-2-yl)sulfonyl]-1-[4-(pyridin-4-yl)benzoyl]piperazine] | 10 |
| O=C(c1ncc(-c2cccc[n+]2[O-])cn1)N1CCN(S(=O)(=O)c2cc3cc(Cl)ccc3[nH]2)CC1 [Example A-183, 2-[2-[[4-[(5-Chloroindol-2-yl)sulfonyl]piperazin-1-yl]carbonyl]pyrimidin-5-yl]pyridine N-oxide] | 4.7 |
| O=C(c1ncc(-c2cccc[n+]2[O-])cn1)N1CCN(S(=O)(=O)c2cc3ccc(Cl)cc3s2)CC1 [Example A-185, 2-[2-[[4-[(6-Chlorobenzo[b]thien-2-yl)sulfonyl]piperazin-1-yl]carbonyl]pyrimidin-5-yl]pyridine N-oxide] | 6.3 |
| Cc1cc(-c2cnc(C(=O)N3CCN(S(=O)(=O)c4cc5cc(Cl)ccc5[nH]4)CC3)nc2)ccn1 [Example A-186, 1-[(5-Chloroindol-2-yl)sulfonyl]-4-[[5-(2-methylpyridin-4-yl)pyrimidin-2-yl]carbonyl]piperazine] | 1.9 |
| CCC1CN(S(=O)(=O)c2cc3cc(Cl)ccc3[nH]2)CCN1C(=O)c1ncc(-c2cccc[n+]2[O-])cn1 (stereo not shown) [Example A-224, 2-[2-[[4-[(5-Chloroindol-2-yl)sulfonyl]-2-ethylpiperazin-1-yl]carbonyl]pyrimidin-5-yl]pyridine N-oxide] | 7.6 |
| Cc1cc(-c2cnc(C(=O)N3CCN(S(=O)(=O)c4cc5cc(Cl)ccc5[nH]4)CC3)s2)cc[n+]1[O-] [Example A-229, 4-[2-[[4-[(5-Chloroindol-2-yl)sulfonyl]piperazin-1-yl]carbonyl]thiazol-5-yl]-2-methylpyridine N-oxide] | 1.6 |
| C#Cc1ccc2[nH]c(S(=O)(=O)N3CCN(C(=O)c4ncc(-c5cc[n+]([O-])cc5)s4)CC3)cc2c1 [Example A-231, 4-[2-[[4-[(5-Ethynylindol-2-yl)sulfonyl]piperazin-1-yl]carbonyl]thiazol-5-yl]pyridine N-oxide] | 2.3 |
| O=C(c1ncc(-c2cc[n+]([O-])cc2)s1)N1CCN(S(=O)(=O)c2cc3ccc(Cl)cc3s2)CC1 [Example A-239, 4-[2-[[4-[(6-Chlorobenzo[b]thien-2-yl)sulfonyl]piperazin-1-yl]carbonyl]thiazol-5-yl]pyridine N-oxide] | 3.5 |
| O=C(CC1CN(S(=O)(=O)c2cc3cc(Cl)ccc3[nH]2)CCN1C(=O)C1CC=C(c2cc[n+]([O-])cc2)CC1)N1CCCCC1 (stereo not shown) [Example A-259, 4-[4-[[4-[(5-Chloroindol-2-yl)sulfonyl]-2-[(piperidin-1-yl)carbonylmethyl]piperazin-1-yl]carbonyl]-1-cyclohexen-1-yl]pyridine N-oxide] | 3.5 |
| CN(C)C(=O)C[C@@H]1CN(S(=O)(=O)c2cc3ccc(Cl)cc3s2)C[C@H](CC(=O)N(C)C)N1C(=O)c1ncc(-c2cc[n+]([O-])cc2)cn1 [Example A-279, 4-[2-[[2,cis-6-Bis[(N,N-dimethylcarbamoyl)methyl]-4-[(6-chlorobenzo[b]thien-2-yl)sulfonyl]piperazin-1-yl]carbonyl]pyrimidin-5-yl]pyridine N-oxide] | 10 |
| O=C(CC1CN(S(=O)(=O)c2cc3ccc(Cl)cc3s2)CCN1C(=O)c1ncc(-c2cccc[n+]2[O-])cn1)NC1CC1 (stereo not shown) [Example A-293, 2-[2-[[4-[(6-Chlorobenzo[b]thien-2-yl)sulfonyl]-2-[(N-cyclopropylcarbamoyl)methyl]piperazin-1-yl]carbonyl]pyrimidin-5-yl]pyridine N-oxide] | 1.9 |
